Laboratory results taken from the NIST ThermoML archive (doi:10.1016/j.jct.2008.01.012).
Numbers after ± are expanded uncertainties.

How the values were obtained:
[1] = Liquid, Diaphragm manometer
[2] = excess molar enthalpy (molar enthalpy of mixing); xn = mol fraction of the nth substance listed; conditions: 303.15 K, 101 kPa, Liquid, Calvet calorimetry

With `CCN(CC)CCCN` [N,N-diethylpropane-1,3-diamine] the “vapor or sublimation pressure” value ([1]; 303.15 K) was 0.31 ± 0.014 kPa, the “vapor or sublimation pressure” value ([1]; 313.15 K) was 0.586 ± 0.026 kPa and the “vapor or sublimation pressure” value ([1]; 323.15 K) was 1.053 ± 0.046 kPa. The “vapor or sublimation pressure” value ([1]; 333.15 K) was 1.809 ± 0.079 kPa and the “vapor or sublimation pressure” value ([1]; 343.15 K) was 2.987 ± 0.13 kPa.

`CCN(CC)CCCN` [N,N-diethylpropane-1,3-diamine] + CCCCCC showed an excess molar enthalpy ([2]; x1 = 0.0798) of 0.107 ± 0.0043 kcal/mol, an excess molar enthalpy ([2]; x1 = 0.1311) of 0.152 ± 0.00621 kcal/mol and an excess molar enthalpy ([2]; x1 = 0.212) of 0.202 ± 0.00813 kcal/mol. It also gave an excess molar enthalpy ([2]; x1 = 0.2521) of 0.215 ± 0.00884 kcal/mol, an excess molar enthalpy ([2]; x1 = 0.3083) of 0.232 ± 0.00956 kcal/mol and an excess molar enthalpy ([2]; x1 = 0.3089) of 0.232 ± 0.00956 kcal/mol. For the same compound, the excess molar enthalpy ([2]; x1 = 0.3472) was 0.239 ± 0.0098 kcal/mol, the excess molar enthalpy ([2]; x1 = 0.3858) was 0.24 ± 0.0098 kcal/mol and the excess molar enthalpy ([2]; x1 = 0.4188) was 0.241 ± 0.0098 kcal/mol. It also gave an excess molar enthalpy ([2]; x1 = 0.4682) of 0.241 ± 0.0098 kcal/mol, an excess molar enthalpy ([2]; x1 = 0.4835) of 0.241 ± 0.0098 kcal/mol and an excess molar enthalpy ([2]; x1 = 0.5079) of 0.239 ± 0.0098 kcal/mol. The excess molar enthalpy ([2]; x1 = 0.5984) was 0.229 ± 0.00932 kcal/mol, the excess molar enthalpy ([2]; x1 = 0.7107) was 0.194 ± 0.00789 kcal/mol and the excess molar enthalpy ([2]; x1 = 0.802) was 0.146 ± 0.00598 kcal/mol. The excess molar enthalpy ([2]; x1 = 0.8762) was 0.0978 ± 0.00406 kcal/mol.

Work on `CCN(CC)CCCN` [N,N-diethylpropane-1,3-diamine] + CCCCCCC yielded an excess molar enthalpy ([2]; x1 = 0.0503) of 0.0645 ± 0.00263 kcal/mol, an excess molar enthalpy ([2]; x1 = 0.1038) of 0.121 ± 0.00502 kcal/mol and an excess molar enthalpy ([2]; x1 = 0.1491) of 0.16 ± 0.00645 kcal/mol. It also gave an excess molar enthalpy ([2]; x1 = 0.2452) of 0.217 ± 0.00884 kcal/mol, an excess molar enthalpy ([2]; x1 = 0.3961) of 0.255 ± 0.0103 kcal/mol and an excess molar enthalpy ([2]; x1 = 0.4516) of 0.258 ± 0.0105 kcal/mol. For the same compound, the excess molar enthalpy ([2]; x1 = 0.5013) was 0.255 ± 0.0105 kcal/mol, the excess molar enthalpy ([2]; x1 = 0.5973) was 0.235 ± 0.00956 kcal/mol and the excess molar enthalpy ([2]; x1 = 0.7014) was 0.199 ± 0.00813 kcal/mol. It also gave an excess molar enthalpy ([2]; x1 = 0.7987) of 0.149 ± 0.00598 kcal/mol and an excess molar enthalpy ([2]; x1 = 0.8974) of 0.0834 ± 0.00335 kcal/mol.

For `CCN(CC)CCCN` [N,N-diethylpropane-1,3-diamine] + CCCCCCCCCCCC, the excess molar enthalpy ([2]; x1 = 0.0601) was 0.0915 ± 0.00382 kcal/mol, the excess molar enthalpy ([2]; x1 = 0.1207) was 0.161 ± 0.00645 kcal/mol and the excess molar enthalpy ([2]; x1 = 0.2122) was 0.242 ± 0.0098 kcal/mol. The excess molar enthalpy ([2]; x1 = 0.3099) was 0.298 ± 0.0122 kcal/mol, the excess molar enthalpy ([2]; x1 = 0.4093) was 0.325 ± 0.0131 kcal/mol and the excess molar enthalpy ([2]; x1 = 0.4522) was 0.328 ± 0.0134 kcal/mol. It also gave an excess molar enthalpy ([2]; x1 = 0.5054) of 0.327 ± 0.0134 kcal/mol, an excess molar enthalpy ([2]; x1 = 0.6037) of 0.312 ± 0.0127 kcal/mol and an excess molar enthalpy ([2]; x1 = 0.71) of 0.267 ± 0.011 kcal/mol. The excess molar enthalpy ([2]; x1 = 0.8047) was 0.207 ± 0.00837 kcal/mol, the excess molar enthalpy ([2]; x1 = 0.9021) was 0.119 ± 0.00478 kcal/mol and the excess molar enthalpy ([2]; x1 = 0.9498) was 0.0648 ± 0.00263 kcal/mol.

With `CCCCCCC` [heptane] the “vapor or sublimation pressure” value ([1]; 303.15 K) was 7.786 ± 0.34 kPa, the “vapor or sublimation pressure” value ([1]; 313.15 K) was 12.32 ± 0.54 kPa and the “vapor or sublimation pressure” value ([1]; 323.15 K) was 18.85 ± 0.82 kPa. The “vapor or sublimation pressure” value ([1]; 333.15 K) was 27.98 ± 1.2 kPa and the “vapor or sublimation pressure” value ([1]; 343.15 K) was 40.43 ± 1.8 kPa.
